Reference: DBAASP
≈ marks a conversion by molar mass, not a printed value.

How the values were obtained:
Assay in all cases: ≥ marks a high value that may be exact or a test limit, other limits are often not marked, values filed in µg/mL are converted to µM
[1] = test system: Escherichia coli ESBL 63103
[2] = test system: Pseudomonas aeruginosa LES400
[3] = test system: Pseudomonas aeruginosa H103
[4] = test system: Enterococcus faecium mic80
Candida albicans C627 = test system: Candida albicans C627
[5] = test system: Pseudomonas aeruginosa 213
[6] = test system: Staphylococcus aureus ATCC 25923
[7] = test system: Staphylococcus aureus C623
[8] = test system: Lacinutrix algicola AKS293T
[9] = test system: Flavobacterium sp. PAMC 22217
[10] = test system: Enterococcus faecalis ATCC 29212
[11] = test system: Burkholderia cepacia ATCC 25416
[12] = test system: Listeria monocytogenes ATCC 15313
[13] = test system: Streptococcus pyogenes ATCC 19615
[14] = test system: Shigella sonnei ATCC 29930
[15] = test system: Enterobacter cloacae ATCC 13047
[16] = test system: Candida tropicalis ATCC 20115
[17] = test system: Psychrobacter sp. PAMC 21119
[18] = test system: Staphylococcus aureus ATCC 33591
[19] = test system: Escherichia coli DH5alpha
[20] = test system: Candida glabrata ATCC 2001
[21] = test system: Pseudomonas aeruginosa ATCC 15442
[22] = test system: Candida krusei CGMCC 2.1857
[23] = test system: Candida albicans CGMCC 2.2086
[24] = test system: Staphylococcus aureus ATCC 29213
[25] = test system: Salmonella enterica subsp. enterica serovar Typhimurium ATCC 14028
Escherichia coli UB1005 = test system: Escherichia coli UB1005
Escherichia coli 078 = test system: Escherichia coli 078
[26] = test system: Salmonella enterica subsp. enterica serovar Pullorum C79-13
[27] = test system: Staphylococcus epidermidis ATCC 12228
[28] = test system: Escherichia coli ATCC 25922
[29] = test system: Salmonella enterica subsp. enterica serovar Typhimurium C77-31
Escherichia coli K88 = test system: Escherichia coli K88
[30] = test system: Candida tropicalis CGMCC 2.1975
[31] = test system: Bacillus subtilis CMCC 63501
Escherichia coli K99 = test system: Escherichia coli K99
Escherichia coli EC183 = test system: Escherichia coli EC183
Candida albicans CA2761 = test system: Candida albicans CA2761
Pseudomonas aeruginosa = test system: Pseudomonas aeruginosa
Escherichia coli = test system: Escherichia coli
[32] = test system: Candida tropicalis LABMIC 0109
Klebsiella pneumoniae = test system: Klebsiella pneumoniae
Enterococcus faecalis = test system: Enterococcus faecalis
Staphylococcus aureus = test system: Staphylococcus aureus
[33] = test system: Candida parapsilosis LABMIC 0113
[34] = test system: Microsporum canis LABMIC 0401
[35] = test system: Candida parapsilosis ATCC 22019
[36] = test system: Candida tropicalis LABMIC 0112
[37] = test system: Candida albicans LABMIC 0107
Candida krusei ATCC 6258 = test system: Candida krusei ATCC 6258
Acinetobacter baumannii = test system: Acinetobacter baumannii
[38] = test system: Pseudomonas aeruginosa ATCC 27853
[39] = test system: Klebsiella pneumoniae KpC+001825971
[40] = test system: Trichophyton rubrum LABMIC 0203
Streptococcus pyogenes = test system: Streptococcus pyogenes
[41] = test system: Escherichia coli KpC+001812446
[42] = test system: Papiliotrema laurentii LABMIC 0404
[43] = test system: Klebsiella pneumoniae ATCC 13883

SMILES: NCCCC[C@H](NC(=O)[C@@H](N)CCCN=C(N)N)C(=O)N[C@@H](CCCN=C(N)N)C(=O)N[C@@H](Cc1c[nH]c2ccccc12)C(=O)N[C@@H](Cc1c[nH]c2ccccc12)C(=O)N[C@@H](Cc1c[nH]c2ccccc12)C(=O)N[C@@H](Cc1c[nH]c2ccccc12)C(=O)N[C@@H](Cc1ccccc1)C(=O)N[C@@H](CCCN=C(N)N)C(=O)O [RKRWWWWFR]
- MIC [1]: 5.31 µM (≈ 8 µg/mL)
- MIC [2]: 21.2 µM (≈ 32 µg/mL)
- MIC [3]: 1.33 µM (≈ 2 µg/mL)
- MIC [4]: 5.31 µM (≈ 8 µg/mL)
- MIC (Candida albicans C627): 5.31 µM (≈ 8 µg/mL)
- MIC [5]: 5.31 µM (≈ 8 µg/mL)
- MIC [6]: 2.65 µM (≈ 4 µg/mL)
- MIC [7]: 1.33 µM (≈ 2 µg/mL)

SMILES: CC[C@H](C)[C@H](NC(=O)CNC(=O)[C@H](CCCN=C(N)N)NC(=O)[C@H](Cc1ccccc1)NC(=O)[C@H](CC(C)C)NC(=O)[C@H](Cc1cnc[nH]1)NC(=O)CNC(=O)[C@H](Cc1ccccc1)NC(=O)[C@@H](N)Cc1ccccc1)C(=O)N[C@H](C(=O)N[C@@H](CC(N)=O)C(=O)N[C@H](C(=O)NCC(=O)N[C@@H](CCCCN)C(=O)N[C@@H](Cc1cnc[nH]1)C(=O)N[C@H](C(=O)N[C@@H](Cc1cnc[nH]1)C(=O)NCC(=O)N[C@@H](CC(C)C)C(=O)N[C@@H](CC(C)C)C(=O)N[C@@H](CO)C(=O)NCC(N)=O)[C@@H](C)CC)C(C)C)[C@@H](C)CC [FFGHLFRGIINVGKHIHGLLSG]
- MIC [8]: 1.25 µM (≈ 3.02 µg/mL)
- MIC [9]: 1.5 µM (≈ 3.63 µg/mL)
- MIC [10]: 25 µM (≈ 60.5 µg/mL)
- MIC [11]: ≥ 50 µM
- MIC [12]: 5 µM (≈ 12.1 µg/mL)
- MIC [13]: 2.5 µM (≈ 6.05 µg/mL)
- MIC [14]: 5 µM (≈ 12.1 µg/mL)
- MIC [15]: 25 µM (≈ 60.5 µg/mL)
- MIC [16]: 5 µM (≈ 12.1 µg/mL)
- MIC [17]: 1.25 µM (≈ 3.02 µg/mL)
- MIC [18]: 5 µM (≈ 12.1 µg/mL)
- MIC [19]: 5 µM (≈ 12.1 µg/mL)
- MIC [20]: ≥ 50 µM
- MIC [21]: ≥ 50 µM

SMILES: CC[C@H](C)[C@H](NC(=O)[C@H](Cc1c[nH]c2ccccc12)NC(=O)[C@H](CCCCN)NC(=O)[C@H](CC(C)C)NC(=O)[C@@H](NC(=O)[C@H](CCCCN)NC(=O)CNC(=O)[C@@H](NC(=O)[C@H](CCCCN)NC(=O)[C@H](CCCCN)NC(=O)[C@H](CC(C)C)NC(=O)[C@@H](N)CCCN=C(N)N)[C@@H](C)CC)C(C)C)C(N)=O [RLKKIGKVLKWI]
- MIC [22]: 16 µM (≈ 23.7 µg/mL)
- MIC [23]: ≥ 128 µM
- MIC [10]: 64 µM (≈ 94.8 µg/mL)
- MIC [24]: 64 µM (≈ 94.8 µg/mL)
- MIC [25]: 16 µM (≈ 23.7 µg/mL)
- MIC (Escherichia coli UB1005): 16 µM (≈ 23.7 µg/mL)
- MIC (Escherichia coli 078): 16 µM (≈ 23.7 µg/mL)
- MIC [26]: 4 µM (≈ 5.92 µg/mL)
- MIC [27]: 64 µM (≈ 94.8 µg/mL)
- MIC [28]: 8 µM (≈ 11.8 µg/mL)
- MIC [29]: 8 µM (≈ 11.8 µg/mL)
- MIC (Escherichia coli K88): 4 µM (≈ 5.92 µg/mL)
- MIC [30]: 8 µM (≈ 11.8 µg/mL)
- MIC [31]: 2 µM (≈ 2.96 µg/mL)
- MIC (Escherichia coli K99): 4 µM (≈ 5.92 µg/mL)
- MIC [6]: 128 µM (≈ 190 µg/mL)
- MIC (Escherichia coli EC183): 2 µM (≈ 2.96 µg/mL)
- MIC (Candida albicans CA2761): ≥ 128 µM

SMILES: CC[C@H](C)[C@H](NC(=O)[C@H](CCCCN)NC(=O)[C@H](CCCCN)NC(=O)[C@H](CC(C)C)NC(=O)[C@H](CCCN=C(N)N)NC(=O)[C@H](CCCCN)NC(=O)[C@@H](N)CCCCN)C(=O)N[C@@H](Cc1ccccc1)C(=O)N[C@@H](CCCCN)C(=O)N[C@@H](CCCCN)C(=O)N1CCC[C@H]1C(=O)N[C@@H](CCSC)C(=O)N[C@H](C(=O)N[C@H](C(=O)NCC(=O)N[C@H](C(=O)N[C@H](C(=O)N[C@H](C(=O)N1CCC[C@H]1C(=O)N[C@@H](Cc1ccccc1)C(N)=O)[C@@H](C)CC)[C@@H](C)O)C(C)C)[C@@H](C)CC)C(C)C [KKRLKKIFKKPMVIGVTIPF]
- MIC (Pseudomonas aeruginosa): 27 µM (≈ 64 µg/mL)
- MIC (Escherichia coli): 3.37 µM (≈ 8 µg/mL)
- MIC [32]: 9.99 µM (≈ 23.7 µg/mL)
- MIC [10]: > 54 µM
- MIC (Klebsiella pneumoniae): 3.37 µM (≈ 8 µg/mL)
- MIC [24]: > 54 µM
- MIC (Enterococcus faecalis): ≥ 54 µM
- MIC (Staphylococcus aureus): > 54 µM
- MIC [33]: 5 µM (≈ 11.8 µg/mL)
- MIC [34]: ≥ 40 µM
- MIC [35]: ≥ 40 µM
- MIC [36]: 5 µM (≈ 11.8 µg/mL)
- MIC [37]: 9.99 µM (≈ 23.7 µg/mL)
- MIC (Candida krusei ATCC 6258): 5 µM (≈ 11.8 µg/mL)
- MIC (Acinetobacter baumannii): 1.69 µM (≈ 4 µg/mL)
- MIC [38]: 27 µM (≈ 64 µg/mL)
- MIC [39]: 3.37 µM (≈ 8 µg/mL)
- MIC [40]: ≥ 40 µM
- MIC [6]: 6.75 µM (≈ 16 µg/mL)
- MIC (Streptococcus pyogenes): 3.37 µM (≈ 8 µg/mL)
- MIC [41]: 0.843 µM (≈ 2 µg/mL)
- MIC [42]: 5 µM (≈ 11.8 µg/mL)
- MIC [43]: 0.843 µM (≈ 2 µg/mL)
